Source: paper PMC7290864, “Allosteric Antagonism of the A2A Adenosine Receptor by a Series of Bitopic Ligands” (Cells, 2020)

Assays:
human A2AAR [1] = biological target: T1, human A2AAR (Homo sapiens, UniProt P29274); test: cAMP accumulation assay, antagonism of CGS21680 with Schild analysis; format: cell-based; conditions: for Kb / Functional Antagonism Slope (Schild): Schild analysis, CGS21680-induced cAMP; for Kb: antagonist pretreatment 20 min, read-out: Functional Antagonism KB; for Functional Antagonism Slope (Schild): linear part of plot only for XAC630, MRS7396, HMA; for Pattern of A2AAR antagonism: from functional antagonism and Schild analysis
T1 construct: expressed in transfected cells; host or cells: HEK293 cells stably expressing the human A2AAR
Procedure: HEK293 cells stably expressing the human A2AAR were seeded in 96-well plates and incubated in 100 µL medium at 37 °C overnight. The medium was removed the following day and cells were then treated with assay buffer containing rolipram (10 μM) and antagonists for 20 min followed by the addition of agonists, and then incubated for 20 min. The reaction was terminated upon removal of the supernatant and addition of 100 µL Tween-20 (0.3%). Intracellular 3′,5′-cyclic adenosine monophosphate (cAMP) levels were measured with an ALPHAScreen cAMP assay kit as instructed by the manufacturer (PerkinElmer, Boston, MA, USA).
(§1) Functional parameters were calculated using Prism 8.1.0 software (GraphPAD, San Diego, CA, USA). Data were expressed as mean ± standard error. Data were analyzed by analysis of variance (ANOVA) followed by post hoc analysis to check the statistical difference among groups with p < 0.05 being considered significant.
To examine and analyze mechanistically the patterns of functional antagonism by various antagonists of different chemical entities, cells expressing relatively low A2AAR levels with minimal signaling amplification were used, as recommended, since receptor overexpression is related to the constitutive activity, and signaling amplification has been linked to changing the patterns of antagonism.

human A2AAR [2] = biological target: T1, human A2AAR; test: [^3H]ZM241385 radioligand binding, HEK293 membranes; conditions: for Ki: WT receptor, 1 nM [^3H]ZM241385, membranes, 25 °C, 60 min
Procedure: (§2) HEK293 cells expressing the human A2AAR were cultured in DMEM supplemented with 10% fetal bovine serum, 100 Units/mL penicillin, 100 µg/mL streptomycin and 2 µmol/mL glutamine. To prepare cell membranes, cells were detached from plates by scraping into PBS and centrifuged at 250× g for 5 min. The resulting pellets were re-suspended in ice-cold Tris-HCl buffer (50 mM, pH 7.4) and homogenized. After homogenization and suspension, cells were first centrifuged at 1000× g for 10 min and the pellet was discarded. The suspension was then re-centrifuged at 20,000× g for 60 min at 4 °C. The pellets were re-suspended, split into aliquots and stored at −80 °C. The protein concentration was measured using the Bradford assay.
(§3) Radioligand binding assays were performed using membranes prepared from HEK293 cells expressing human the A2AAR using both agonist and antagonist radioligands as previously described. […] (5 nM) or [^3H]ZM241385 (1 nM) and membrane preparations (20 μg protein) at 25 °C for 60 min in a total of 200 μL of Tris-HCl buffer (50 mM, pH 7.5) containing 10 mM MgCl2. […] Binding reactions were terminated by filtration through Whatman GF/B filters under reduced pressure using an MT-24 cell harvester (Brandell, Gaithersburg, MD, USA) followed by washing twice with 5 mL of cold Tris-HCl buffer.
as §1

human A2AAR [3] = biological target: T1, human A2AAR; test: Fluorescent ligand MRS7416 binding to intact HEK293 cells (flow cytometry); conditions: for Ki: displacement of 15 nM fluorescent MRS7416, intact cells, 37 °C, 60 min; for Times weaker in displacing MRS7416 binding than radioligand binding: fluorescent versus radioligand Ki
Procedure: Cells were plated in 96-well plates and grow overnight. In saturation binding experiments with fluorescent antagonist MRS7416, various concentrations were incubated in cell culture medium with control HEK293 cells or HEK293 cells expressing the A2AAR for 60 min at 37 °C in an atmosphere containing 5% CO2. […] At the end the reaction, the medium was removed, and cells were washed twice with PBS. After washing, 0.2 mL 0.1% EDTA solution was added to each well, and cells were incubated at 37 °C for 10 min. Following cell detachment and mixing of cells, the intensity of fluorescence emission of each sample was measured by using flow cytometry as previously described. […] Samples were maintained in the dark during the analysis to avoid photobleaching. Mean fluorescence intensity (MFI) was determined in the FL-1 channel in log mode. Ten thousand events were analyzed per sample. Data were collected using Cell Quest Pro software (BD, Franklin Lakes, NJ, USA) and analyzed by Cyflogic v. 1.2.1 software (CyFlo, Ltd., Turku, Finland).

human A2AAR [4] = biological target: T1, human A2AAR; test: [^3H]CGS21680 radioligand binding, HEK293 membranes; conditions: for Ki: 5 nM [^3H]CGS21680, membranes, 25 °C, 60 min; for [^3H]CGS21680 binding, percent effect of the fluorophore amide alone: at a concentration of 10 µM
Procedure: as §2, §3, §1

A2AAR D52A mutation = tested on: A2AAR D52A mutation; parameters: method as in Massink et al. [10],[11]; conditions: ref Massink et al. [10],[11]; cited from earlier work
D52N mutant A2AAR = biological target: T2, D52N mutant A2AAR (Homo sapiens, UniProt P29274, D52N); test: [^3H]ZM241385 binding to D52N mutant A2AAR expressed in HEK293 cells; conditions: for Ki: 1 nM [^3H]ZM241385
T2 construct: expressed in transfected cells; host or cells: HEK293 cells
Procedure: as §3
Here we examined if HMA and MRS7396 behave in a similar manner or not.
Data were from three independent experiments performed in duplicate.

T1 sequence (P29274 whole entry): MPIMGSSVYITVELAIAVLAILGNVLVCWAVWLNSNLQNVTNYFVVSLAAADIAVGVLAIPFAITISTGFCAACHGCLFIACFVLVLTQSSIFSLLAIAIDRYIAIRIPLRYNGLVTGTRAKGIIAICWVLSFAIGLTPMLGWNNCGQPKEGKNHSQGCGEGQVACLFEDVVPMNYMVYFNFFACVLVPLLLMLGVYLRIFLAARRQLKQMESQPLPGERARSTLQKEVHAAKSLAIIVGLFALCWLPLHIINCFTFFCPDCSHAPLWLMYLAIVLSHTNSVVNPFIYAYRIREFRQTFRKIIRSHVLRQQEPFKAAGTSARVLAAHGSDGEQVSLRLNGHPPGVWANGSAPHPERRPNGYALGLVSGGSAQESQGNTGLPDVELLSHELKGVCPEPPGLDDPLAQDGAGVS
T2 sequence (P29274 whole entry D52N): as the sequence (P29274 whole entry) above, with D52N counted along it

| SMILES | Kb (human A2AAR [1]) [µM] | Functional Antagonism Slope (Schild) (human A2AAR [1]) | Pattern of A2AAR antagonism (human A2AAR [1]) | Ki (human A2AAR [2]) [nM] | Ki (human A2AAR [3]) [nM] | Times weaker in displacing MRS7416 binding than radioligand binding (human A2AAR [3]) | Ki (human A2AAR [4]) [nM] | [^3H]CGS21680 binding, percent effect of the fluorophore amide alone (human A2AAR [4]) [%] | Fold decrease of affinity by D52A mutation (A2AAR D52A mutation) | Ki (D52N mutant A2AAR) [µM] | Fold affinity decrease at D52N versus WT (D52N mutant A2AAR; [^3H]ZM241385 binding) [fold] | Fold weaker at WT than at the D52N mutant receptor (D52N mutant A2AAR; [^3H]ZM241385 binding) | Fold more potent in binding in comparison to MRS7416 (human A2AAR [2]; radioligand binding) [fold] | Kd (human A2AAR [3]; saturation binding, intact cells, n = 6, read-out: Kd value from MRS7416 saturation experiments) [µM] |
| --- | --- | --- | --- | --- | --- | --- | --- | --- | --- | --- | --- | --- | --- | --- |
| CCCn1c(=O)c2[nH]c(-c3ccc(OCC(=O)NCCNC(=O)CCCCCNC(=O)COc4ccc(/C=C/C5=[N+]6C(=Cc7ccc(-c8cccs8)n7[B-]6(F)F)C=C5)cc4)cc3)nc2n(CCC)c1=O [XAC630, reference compound] | 0.0511 ± 0.0122 | 0.47 ± 0.04 | allosteric A2AAR antagonists | 36.6 ± 10.1 | 692 ± 173 | 9–100 times | 29 ± 5.7 |  |  |  |  |  |  |  |
| N=c1ccc2c(-c3ccc(C(N)=O)cc3C(=O)O)c3ccc(N)c(S(=O)(=O)O)c3oc-2c1S(=O)(=O)O [AF488-amide] |  |  |  |  |  |  |  | 3.7 ± 1.2 |  |  |  |  |  |  |
| NC(N)=NC(=O)c1nc(Cl)c(N2CCCCCC2)nc1N [HMA, 5-(N,N-hexamethylene)amiloride, reference compound] | 3.81 ± 0.45 | 0.59 ± 0.05 |  | 3050 ± 1210 | 18500 ± 2800 | 9–100 times | 2120 ± 510 |  | over 10 fold | 15.8 | 5 |  |  |  |
| Nc1nc2c(cnn2CCCc2ccc(OCC(=O)NCCCCNC(=O)CCCCCNC(=O)COc3ccc(/C=C/C4=[N+]5C(=Cc6ccc(-c7cccs7)n6[B-]5(F)F)C=C4)cc3)cc2)c2nc(-c3ccco3)nn12 [MRS7396] | 0.0017 ± 0.00034 | 0.42 ± 0.02 | allosteric A2AAR antagonists | 2.34 ± 0.33 | 256 ± 33 | 9–100 times | 2.83 ± 0.2 |  |  | 0.00079 ± 0.00023 |  | ~ 3 fold | 10 |  |
| CCCn1c(=O)c2[nH]c(-c3ccc(OCC(=O)NCCNC(=O)CCNC(=O)CCCCNC(=O)CCCCCNC(=O)c4ccc(-c5c6ccc(=N)c(S(=O)(=O)O)c-6oc6c(S(=O)(=O)O)c(N)ccc56)c(C(=O)O)c4)cc3)nc2n(CCC)c1=O [XAC488] | 0.65 ± 0.12 | 1.03 ± 0.05 | antagonized competitively | 388 ± 62 |  |  | 438 ± 110 |  |  |  |  |  |  |  |
| N=c1ccc2c(-c3ccc(C(=O)NCCCCNC(=O)COc4ccc(CCCn5ncc6c5nc(N)n5nc(-c7ccco7)nc65)cc4)cc3C(=O)O)c3ccc(N)c(S(=O)(=O)O)c3oc-2c1S(=O)(=O)O [MRS7416] | 0.00911 ± 0.00177 | 0.68 ± 0.03 | allosteric A2AAR antagonists | 23.8 ± 5.6 |  |  | 16.4 ± 1.6 |  |  |  |  |  |  | 0.0176 ± 0.0041 |
| NC(=O)CCCCCNC(=O)COc1ccc(/C=C/C2=[N+]3C(=Cc4ccc(-c5cccs5)n4[B-]3(F)F)C=C2)cc1 [BY630-amide] |  |  |  |  |  |  |  | 2.6 ± 1.5 |  |  |  |  |  |  |
| Nc1nc2c(cnn2CCCc2ccc(OCc3ccc(S(=O)(=O)O)cc3)cc2)c2nc(-c3ccco3)nn12 [MRS7352] | 0.00661 ± 0.00088 | 0.88 ± 0.06 |  | 6.24 ± 2.42 | 5.28 ± 1.31 |  | 4.98 ± 1.13 |  |  |  |  |  |  |  |
| N#Cc1c(N)nc(SCc2ncc[nH]2)c(C#N)c1-c1ccc(O)cc1 [LUF5834, 2-amino-4-(4-hydroxyphenyl)-6-[(1H-imidazol-2-ylmethyl)thio]-3,5-pyridinecarbonitrile, reference compound] |  |  |  | 13.3 ± 6.5 | 23 ± 4.6 |  |  |  |  |  |  |  |  |  |
| CCCn1c(=O)c2[nH]c(-c3ccc(OCC(=O)NCCNC(=O)CCNC(=O)CCCCNC(=O)CCCCCN)cc3)nc2n(CCC)c1=O [XAC245] | 0.28 ± 0.033 | 0.68 ± 0.04 | allosteric A2AAR antagonists | 198 ± 33 | 152 ± 29 |  | 220 ± 36 |  |  |  |  |  |  |  |
